Here are results for 15 compounds from US20240116951A1, “HETEROCYCLIC COMPOUNDS AND USES THEREOF” (Kumquat Biosciences Inc., priority 2022, published 2024).

Common to all, as to assay type: binding
One assay has as its target T1, KRAS G12D (Homo sapiens, UniProt P01116, G12D).
T1 construct: made in house; host or cells: E. coli, e.g. BL21 (DE3)
Description: HTRF assay of K-Ras G12D interaction with SOS1 (PPI-HTRF). Particulars: HTRF, 5 nM KRAS G12D; read-out: PPI-HTRF-5 nM KRAS G12D. The gist of the method:
(§1)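 Compounds tested in duplicate from 10 μM to 0.01 μM; 665/620 nm emission ratio used to derive IC50. Proximity FRET between anti-GST-Eu on GST-K-Ras (wildtype or mutant) and anti-6His-XL665 on His-hSOS1 measured after ≥10 min in pH 7.4 HEPES/NaCl/DTT/BSA/Igepal buffer.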
Background: TR-FRET usually uses a lanthanide donor and a delayed reading to cut background.

The target of another assay is T2, KRAS G12S (Homo sapiens, UniProt P01116, G12S).
T2 construct: made in house; host or cells: E. coli, e.g. BL21 (DE3)
T2 sequence (P01116 1-188 isoform P01116-2 G12S): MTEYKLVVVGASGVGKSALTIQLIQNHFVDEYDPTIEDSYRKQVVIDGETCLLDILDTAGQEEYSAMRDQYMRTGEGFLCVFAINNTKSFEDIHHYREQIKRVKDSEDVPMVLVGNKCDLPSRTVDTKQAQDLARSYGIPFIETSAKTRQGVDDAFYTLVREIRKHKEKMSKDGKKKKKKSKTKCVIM
The assay is described as follows: HTRF assay of K-Ras G12S interaction with SOS1 (PPI-HTRF). The conditions noted are these: 5 nM KRAS G12S, read-out: PPI-HTRF-5 nM KRAS G12S. In a few lines: as §1

A further assay deals with T3, KRAS WT (Homo sapiens, UniProt P01116).
T3 construct: made in house; host or cells: E. coli, e.g. BL21 (DE3)
T3 sequence (P01116 1-188 isoform P01116-2): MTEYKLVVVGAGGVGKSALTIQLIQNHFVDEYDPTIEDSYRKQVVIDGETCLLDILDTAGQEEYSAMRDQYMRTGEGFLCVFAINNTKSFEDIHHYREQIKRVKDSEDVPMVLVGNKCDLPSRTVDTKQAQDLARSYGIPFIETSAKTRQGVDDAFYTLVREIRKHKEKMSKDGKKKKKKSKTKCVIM
Description: HTRF assay of wildtype K-Ras interaction with SOS1 (PPI-HTRF). Particulars: HTRF, 5 nM KRAS WT; read-out: PPI-HTRF-5 nM KRAS WT. In a few lines:
as §1

T1 sequence (P01116 1-188 isoform P01116-2 G12D): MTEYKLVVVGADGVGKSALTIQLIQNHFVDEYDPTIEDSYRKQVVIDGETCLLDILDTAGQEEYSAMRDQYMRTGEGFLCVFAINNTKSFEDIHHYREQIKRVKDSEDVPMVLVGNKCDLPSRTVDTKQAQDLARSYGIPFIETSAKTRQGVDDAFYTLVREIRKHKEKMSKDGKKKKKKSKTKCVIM

Consider `N#Cc1cn(C(=O)N2CCC23CCN(c2nc(OC[C@@]45CCCN4C[C@H](F)C5)nc4c(F)c(-c5ccc(F)c6sc(N)c(C#N)c56)c(Cl)cc24)C3)cn1` (stereo partly drawn) [Compound 310, 1-(6-(7-(2-amino-3-cyano-7-fluorobenzo[b]thiophen-4-yl)-6-chloro-8-fluoro-2-(((2R,7aS)-2-fluorotetrahydro-1H-pyrrolizin-7a(5H)-yl)methoxy)quinazolin-4-yl)-1,6-diazaspiro[3.4]octane-1-carbonyl)-1H-imidazole-4-carbonitrile], for which the IC50 at KRAS G12D, on KRAS G12S and at KRAS WT was less than 5 µM throughout.

Consider `CN1CCC[C@H]1COc1nc2c(c(N3CCC4(CCN4C(=O)n4cncn4)C3)n1)CCN(c1cccc3cccc(Cl)c13)C2` (stereo partly drawn) [Compound 245, (6-(7-(8-chloronaphthalen-1-yl)-2-(((S)-1-methylpyrrolidin-2-yl)methoxy)-5,6,7,8-tetrahydropyrido[3,4-d]pyrimidin-4-yl)-1,6-diazaspiro[3.4]octan-1-yl)(1H-1,2,4-triazol-1-yl)methanone], for which the IC50 on KRAS G12D, at KRAS G12S and at KRAS WT was greater than 5 µM in each case.

As to `N#Cc1c(N)sc2c(F)ccc(-c3c(Cl)cc4c(N5CCC6(CCN6C(=O)n6cnc(C(F)(F)F)n6)C5)nc(OC[C@@]56CCCN5C[C@H](F)C6)nc4c3F)c12` (stereo partly drawn) [Compound 292, 2-amino-4-(6-chloro-8-fluoro-2-(((2R,7aS)-2-fluorotetrahydro-1H-pyrrolizin-7a(5H)-yl)methoxy)-4-(1-(3-(trifluoromethyl)-1H-1,2,4-triazole-1-carbonyl)-1,6-diazaspiro[3.4]octan-6-yl)quinazolin-7-yl)-7-fluorobenzo[b]thiophene-3-carbonitrile], the IC50 on KRAS G12D, on KRAS G12S and at KRAS WT was less than 5 µM in each case.

Regarding `N#Cc1c(N)sc2c(F)ccc(-c3c(F)c4nc(OC[C@@]56CCCN5C[C@H](F)C6)nc(N5CCC6(CCN6)C5)c4c(=O)n3C3CC3)c12` (stereo partly drawn) [Compound 333, 2-amino-4-(6-cyclopropyl-8-fluoro-2-(((2R,7aS)-2-fluorotetrahydro-1H-pyrrolizin-7a(5H)-yl)methoxy)-5-oxo-4-(1,6-diazaspiro[3.4]octan-6-yl)-5,6-dihydropyrido[4,3-d]pyrimidin-7-yl)-7-fluorobenzo[b]thiophene-3-carbonitrile], the IC50 on KRAS G12D, at KRAS G12S and at KRAS WT was less than 5 µM each time.

On to `Cc1cc(N)c(F)c(-c2c(Cl)cc3c(N4CCC5(CCN5C(=O)n5cncn5)C4)nc(OC[C@@]45CCCN4C[C@H](F)C5)nc3c2F)c1C(F)(F)F` (stereo partly drawn) [Compound 279, (6-(7-(3-amino-2-fluoro-5-methyl-6-(trifluoromethyl)phenyl)-6-chloro-8-fluoro-2-(((2R,7aS)-2-fluorotetrahydro-1H-pyrrolizin-7a(5H)-yl)methoxy)quinazolin-4-yl)-1,6-diazaspiro[3.4]octan-1-yl)(1H-1,2,4-triazol-1-yl)methanone], for which the IC50 on KRAS G12D, on KRAS G12S and at KRAS WT was greater than 5 µM throughout.

As to `N#CCc1ncn(C(=O)N2CCC23CCN(c2nc(OC[C@@]45CCCN4C[C@H](F)C5)nc4c(F)c(-c5ccc(F)c6sc(N)c(C#N)c56)c(Cl)cc24)C3)n1` (stereo partly drawn) [Compound 320, 2-amino-4-(6-chloro-4-(1-(3-(cyanomethyl)-1H-1,2,4-triazole-1-carbonyl)-1,6-diazaspiro[3.4]octan-6-yl)-8-fluoro-2-(((2R,7aS)-2-fluorotetrahydro-1H-pyrrolizin-7a(5H)-yl)methoxy)quinazolin-7-yl)-7-fluorobenzo[b]thiophene-3-carbonitrile], the IC50 at KRAS G12D, on KRAS G12S and at KRAS WT was less than 5 µM throughout.

For `Nc1nc2c(-c3c(Cl)cc4c(N5CCCC6(CCN6)CC5)nc(OC[C@@]56CCCN5C[C@H](F)C6)nc4c3F)ccc(F)c2s1` (stereo partly drawn) [Compound 276, 4-(6-chloro-8-fluoro-2-(((2R,7aS)-2-fluorotetrahydro-1H-pyrrolizin-7a(5H)-yl)methoxy)-4-(1,7-diazaspiro[3.6]decan-7-yl)quinazolin-7-yl)-7-fluorobenzo[d]thiazol-2-amine], the IC50 on KRAS G12D, on KRAS G12S and on KRAS WT was less than 5 µM each time.

Consider `N#Cc1c(N)sc2c(F)ccc(-c3c(Cl)cc4c(N5CCC6(CCCCN6C(=O)n6cncn6)C5)nc(OC[C@@]56CCCN5C[C@H](F)C6)nc4c3F)c12` (stereo partly drawn) [Compound 216, 4-(4-(6-(1H-1,2,4-triazole-1-carbonyl)-2,6-diazaspiro[4.5]decan-2-yl)-6-chloro-8-fluoro-2-(((2R,7aS)-2-fluorotetrahydro-1H-pyrrolizin-7a(5H)-yl)methoxy)quinazolin-7-yl)-2-amino-7-fluorobenzo[b]thiophene-3-carbonitrile], for which the IC50 on KRAS G12D, at KRAS G12S and at KRAS WT was less than 5 µM in each case.

For the compound `C[C@H](Oc1nc(N2CCC3(CCN3C(=O)[C@@H]3C[C@H]3F)C2)c2cc(Cl)c(-c3ccc(F)c4sc(N)c(C#N)c34)c(F)c2n1)[C@@H]1CCCN1C` (stereo partly drawn) [Compound 271, 2-amino-4-(6-chloro-8-fluoro-4-(1-((1S,2R)-2-fluorocyclopropane-1-carbonyl)-1,6-diazaspiro[3.4]octan-6-yl)-2-((S)-1-((S)-1-methylpyrrolidin-2-yl)ethoxy)quinazolin-7-yl)-7-fluorobenzo[b]thiophene-3-carbonitrile], the IC50 on KRAS G12D, on KRAS G12S and at KRAS WT was less than 5 µM in each case.

Turning to `N#Cc1c(NC(=O)C2CC2(F)F)sc2c(F)ccc(-c3c(F)c4nc(OC[C@@]56CCCN5C[C@H](F)C6)nc(N5CCC6(CCN6C(=O)C6CC6(F)F)C5)c4c(=O)n3C3CC3)c12` (stereo partly drawn) [Compound 343, N-(3-cyano-4-(6-cyclopropyl-4-(1-(2,2-difluorocyclopropane-1-carbonyl)-1,6-diazaspiro[3.4]octan-6-yl)-8-fluoro-2-(((2R,7aS)-2-fluorotetrahydro-1H-pyrrolizin-7a(5H)-yl)methoxy)-5-oxo-5,6-dihydropyrido[4,3-d]pyrimidin-7-yl)-7-fluorobenzo[b]thiophen-2-yl)-2,2-difluorocyclopropane-1-carboxamide], the IC50 at KRAS G12D, on KRAS G12S and on KRAS WT was less than 5 µM in each case.

Regarding `Nc1nc2c(-c3c(F)c4nc(OC[C@@]56CCCN5C[C@H](F)C6)nc(N5CCC6(CCN6C(=O)n6cncn6)C5)c4c(=O)n3C3CC3)ccc(F)c2s1` (stereo partly drawn) [Compound 257, 4-(1-(1H-1,2,4-triazole-1-carbonyl)-1,6-diazaspiro[3.4]octan-6-yl)-7-(2-amino-7-fluorobenzo[d]thiazol-4-yl)-6-cyclopropyl-8-fluoro-2-(((2R,7aS)-2-fluorotetrahydro-1H-pyrrolizin-7a(5H)-yl)methoxy)pyrido[4,3-d]pyrimidin-5(6H)-one], the IC50 on KRAS G12D, on KRAS G12S and on KRAS WT was less than 5 µM throughout.

In the case of `N#Cc1c(N)sc2c(F)ccc(-c3c(Cl)cc4c(N5CCC6(CCN6C(=O)[C@@H]6N[C@H]6C6CC6)C5)nc(OC[C@@]56CCCN5C[C@H](F)C6)nc4c3F)c12` (stereo partly drawn) [Compound 296, 2-amino-4-(6-chloro-4-(1-((2R,3S)-3-cyclopropylaziridine-2-carbonyl)-1,6-diazaspiro[3.4]octan-6-yl)-8-fluoro-2-(((2R,7aS)-2-fluorotetrahydro-1H-pyrrolizin-7a(5H)-yl)methoxy)quinazolin-7-yl)-7-fluorobenzo[b]thiophene-3-carbonitrile], the IC50 at KRAS G12D, on KRAS G12S and on KRAS WT was less than 5 µM throughout.

`C#Cc1c(F)ccc2cc(O)cc(-c3ncc4c(N5CCC6(CCN6C(=O)n6cncn6)C5)nc(OC[C@@]56CCCN5C[C@H](F)C6)nc4c3F)c12` (stereo partly drawn) [Compound 270, (6-(7-(8-ethynyl-7-fluoro-3-hydroxynaphthalen-1-yl)-8-fluoro-2-(((2R,7aS)-2-fluorotetrahydro-1H-pyrrolizin-7a(5H)-yl)methoxy)pyrido[4,3-d]pyrimidin-4-yl)-1,6-diazaspiro[3.4]octan-1-yl)(1H-1,2,4-triazol-1-yl)methanone]: the IC50 on KRAS G12D, at KRAS G12S and on KRAS WT was less than 5 µM each time.

For `N#Cc1c(N)sc2c(F)ccc(-c3c(Cl)cc4c(N5CC[C@@]6(CCN6C(=O)n6cncn6)C5)nc(OC[C@@]56CCCN5C[C@H](F)C6)nc4c3F)c12` (single isomer, unassigned) [Compound 234], the IC50 at KRAS G12D, at KRAS G12S and at KRAS WT was less than 5 µM each time.

Turning to `Nc1nc2c(-c3c(Cl)cc4c(N5CCCC6(CCCN6C(=O)n6cncn6)C5)nc(OC[C@@]56CCCN5C[C@H](F)C6)nc4c3F)ccc(F)c2s1` (stereo partly drawn) [Compound 211, (7-(7-(2-amino-7-fluorobenzo[d]thiazol-4-yl)-6-chloro-8-fluoro-2-(((2R,7aS)-2-fluorotetrahydro-1H-pyrrolizin-7a(5H)-yl)methoxy)quinazolin-4-yl)-1,7-diazaspiro[4.5]decan-1-yl)(1H-1,2,4-triazol-1-yl)methanone], the IC50 at KRAS G12D, at KRAS G12S and on KRAS WT was less than 5 µM in each case.
